In one data set the target is T1, CK1δ (Homo sapiens, UniProt P48730).
T1 construct: endogenous in cells; host or cells: Bmal1-dLuc or Per2-dLuc U2OS cells
In words: CK1δ inhibition (EC50); Bmal1-dLuc or Per2-dLuc U2OS luminescence rhythm period assay. It is filed as cell-based. The conditions noted are these: Table 3. How it is done: Bmall-dLuc or Per2-dLuc U2OS cells were suspended in the culture medium (DMEM supplemented with 10% fetal bovine serum, 0.29 mg/mL L-glutamine, 100 units/mL penicillin, and […] streptomycin) and plated onto 96-well white solid-bottom plates at 200 μL (10,000 cells) per well. After 2 days, 100 μL of the explant medium (DMEM supplemented with 2% B27, 10 mM HEPES, 0.38 mg/mL sodium bicarbonate, 0.29 mg/mL L-glutamine, 100 units/mL penicillin, […], 0.1 mg/mL gentamicin, and 1 mM luciferin, pH 7.2) was dispensed to each well, followed by the application of 1 μL of a compound of the present application (dissolved in DMSO; final concentration was 0.7% in DMSO). The plate was covered with an optically clear film and set to microplate reader (Infinite M200, Tecan).

A short description of data set [1]: Intrinsic clearance in liver microsomes (mouse). It is filed as in vitro ADME. The conditions noted are these: Mouse liver microsomes 0.5 mg/mL, 2 μM compound, 37° C.; for microsomal CLint at 2 μM: read-out: in vitro CLint (μL/min/mg protein); for half-life at 2 μM: read-out: in vitro t1/2. As to the method:
(§1) • 1. The master solution was prepared according to Table 5.
(§2) • 2. Three separated experiments were performed as follows. a) With NADPH: 10 μL of 20 mg/mL liver microsomes and 40 μL of 10 mM NADPH were added to the incubations. The final concentrations of microsomes and NADPH were 0.5 mg/mL and 1 mM, respectively. b) Without NADPH: 10 μL of 20 mg/mL liver microsomes and 40 μL of ultra-pure H2O were added to the incubations. The final concentration of microsomes was 0.5 mg/mL. c) Heat-inactivated microsomes without NADPH: 10 μL of 20 mg/mL heat-inactivated liver microsomes and 40 μL of ultra-pure H2O were added to the incubations. The final concentration of microsomes was 0.5 mg/mL. • 3. The reaction was started with the addition of 4 μL of 200 μM test compound solution or control compound solution at the final concentration of 2 μM and carried out at 37° C. • 4. Aliquots of 50 μL were taken from the reaction solution at 0, 15, 30, 45 and 60 min. […] Samples were centrifuged at 3, 220 g for 40 minutes. […] Data Analysis
(§3) Peak areas were determined from extracted ion chromatograms. The slope value, k, was determined by linear regression of the natural logarithm of the remaining percentage of the parent drug vs. incubation time curve.
(§4) The in vitro half-life (in vitro t1/2) was determined from the slope value:
(§5) Conversion of the in vitro t1/2 (min) into the in vitro intrinsic clearance (in vitro CLint, in μL/min/mg protein) was done using the following equation (mean of duplicate determinations): […]
Background: Liver microsomes are a subcellular fraction often used to study metabolism.

Data set [2] in a line: Intrinsic clearance in liver microsomes (human). It is filed as in vitro ADME. The conditions noted are these: Human liver microsomes 0.5 mg/mL, 2 μM compound, 37° C.; for microsomal CLint at 2 μM: read-out: in vitro CLint (μL/min/mg protein); for half-life at 2 μM: read-out: in vitro t1/2. As to the method:
as §1, §2, §3, §4, §5

Another data set addresses wild type CK1δ (Homo sapiens, UniProt P48730). In words: CK1δ kinase assay (Kinase-Glo). Format: biochemical. Conditions: 10 μM ATP, 2 nM wild type CK1δ, 85 min at 25° C. How it is done:
The reaction mixture was incubated for 85 min at 25° C.; detection was carried out as described for the Kinase-Glo Assay (Promega). Luminescent output was measured on the Perkin Elmer Envision plate reader (PerkinElmer, Waltham, MA).

The values below come from patent US20250276972A1, “COMPOUNDS AS CASEIN KINASE INHIBITORS” (GRITSCIENCE BIOPHARMACEUTICALS CO.,LTD., priority 2020, published 2025).

T1 sequence (P48730 whole entry): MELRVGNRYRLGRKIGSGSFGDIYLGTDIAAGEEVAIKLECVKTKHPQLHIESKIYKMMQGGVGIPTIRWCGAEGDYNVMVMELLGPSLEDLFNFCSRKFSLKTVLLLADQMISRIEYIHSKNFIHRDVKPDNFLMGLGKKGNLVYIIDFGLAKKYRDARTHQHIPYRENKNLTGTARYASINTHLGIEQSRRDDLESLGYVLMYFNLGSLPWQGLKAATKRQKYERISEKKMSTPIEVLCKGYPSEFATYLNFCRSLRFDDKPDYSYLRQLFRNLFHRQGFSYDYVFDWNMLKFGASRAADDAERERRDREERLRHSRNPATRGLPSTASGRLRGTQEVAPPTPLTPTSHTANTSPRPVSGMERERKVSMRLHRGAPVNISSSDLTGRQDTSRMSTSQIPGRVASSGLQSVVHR
wild type CK1δ, sequence (P48730 whole entry): as above

The term EC50 denotes the concentration at which the effect is half-maximal. A higher EC50 goes with weaker potency. Molecule `CC(=O)N1CCn2nc(-c3ccc(F)cc3)c(-c3ccnc(NC(=O)C4(c5ccc(F)cc5)CC4)c3)c2C1` [Compound I-77, N-(4-(5-acetyl-2-(4-fluorophenyl)-4,5,6,7-tetrahydropyrazolo[1,5-a]pyrazin-3-yl)pyridin-2-yl)-1-(4-fluorophenyl)cyclopropane-1-carboxamide] came in with an EC50 on CK1δ of 2000 nM. Also, in data set [1], the microsomal CLint at 2 μM was 152 µL/min/mg and the half-life at 2 μM is 9.14 min. In addition, in data set [2], the microsomal CLint at 2 μM was found to be 25.2 µL/min/mg and the half-life at 2 μM was 55 min.
For `CC(=O)Nc1cc(-c2c(-c3ccc(F)cc3)nn3c2CN(C2CC(O)C2)CC3)ccn1` (stereo not shown) [Compound I-44, N-(4-(2-(4-fluorophenyl)-5-(3-hydroxycyclobutyl)-4,5,6,7-tetrahydropyrazolo[1,5-a]pyrazin-3-yl)pyridin-2-yl)acetamide], in that order: 800 nM, 20.5 µL/min/mg, 67.5 min, 4.98 µL/min/mg and 278 min.
At CK1δ, `COCCN1CCn2nc(-c3ccc(F)cc3)c(-c3ccnc(NC(C)=O)c3)c2C1` [Compound I-40, N-(4-(2-(4-fluorophenyl)-5-(2-methoxyethyl)-4,5,6.7-tetrahydropyrazolo[1,5-a]pyrazin-3-yl)pyridin-2-yl)acetamide] had an EC50 of 700 nM. The microsomal CLint at 2 μM in data set [1] was determined as 532 µL/min/mg; in data set [2], 52.5 µL/min/mg. Moreover, the values for the half-life at 2 μM in data set [1] and in data set [2] were 2.61 min and 26.4 min, respectively.
As usually defined, the IC50 is the midpoint of a concentration-inhibition curve. A low value points to greater potency in that assay. For the molecule `[2H]C([2H])([2H])c1cc(-c2c(-c3ccc(F)cc3)nn3c2CN(C(=O)CCN(C)C)CC3)ccn1` [Compound I-134, 3-(dimethylamino)-1-(2-(4-fluorophenyl)-3-(2-(methyl-d3)pyridin-4-yl)-6,7-dihydropyrazolo[1,5-a]pyrazin-5(4H)-yl)propan-1-one], the midpoint of inhibition against wild type CK1δ, the IC50, lay at 1.79 µM.
With `Cc1cc(-c2c(-c3ccc(F)cc3)nn3c2CN(Cc2ncccn2)CC3)ccn1` [Compound I-9, 2-(4-fluorophenyl)-3-(2-methylpyridin-4-y)-5-(pyrimidin-2-ylmethyl)-4,5,6,7-tetrahydropyrazolo[1,5-a]pyrazine], in data set [1], the microsomal CLint at 2 μM is 43.4 µL/min/mg and the half-life at 2 μM was 31.9 min. Further, in data set [2], the microsomal CLint at 2 μM was found to be 12.4 µL/min/mg and the half-life at 2 μM was 112 min.
In turn, `CN1CCn2nc(-c3ccc(F)cc3)c(-c3ccnc(NC(=O)C4CC4)c3)c2C1` [Compound I-89, N-(4-(2-(4-fluorophenyl)-5-methyl-4,5,6,7-tetrahydropyrazolo[1,5-a]pyrazin-3-yl)pyridin-2-yl)cyclopropanecarboxamide] yielded an EC50 on CK1δ of 700 nM. In addition, in data set [1], the microsomal CLint at 2 μM was 665 µL/min/mg and the half-life at 2 μM was 2.09 min. Further, in data set [2], the microsomal CLint at 2 μM stood at 94.3 µL/min/mg and the half-life at 2 μM amounted to 14.7 min.
On wild type CK1δ, `CC(=O)N1CCn2nc(-c3ccc(F)cc3)c(-c3cc(N)ncn3)c2C1` [Compound I-63, 1-(3-(6-aminopyrimidin-4-yl)-2-(4-fluorophenyl)-6,7-dihydropyrazolo[1,5-a]pyrazin-5(4H)-yl)ethan-1-one] registered an IC50 of 28.9 µM.
At CK1δ, `CC(C)C(=O)Nc1cc(-c2c(-c3ccc(F)cc3)nn3c2CN(C)CC3)ccn1` [Compound I-102, N-(4-(2-(4-fluorophenyl)-5-methyl-4,5,6,7-tetrahydropyrazolo[1,5-a]pyrazin-3-yl)pyridin-2-yl)isobutyramide] showed an EC50 of 700 nM. Also, in data set [1], the microsomal CLint at 2 μM was 611 µL/min/mg and the half-life at 2 μM stood at 2.27 min. In data set [2], the microsomal CLint at 2 μM amounted to 29.9 µL/min/mg and the half-life at 2 μM was 46.4 min.
For `CC(=O)Nc1cc(-c2c(-c3ccc(F)cc3)nn3c2CN(C2CCC2)CC3)ccn1` [Compound I-33, N-(4-(5-cyclobutyl-2-(4-fluorophenyl)-4,5,6,7-tetrahydropyrazolo[1,5-a]pyrazin-3-yl)pyridin-2-yl)acetamide], in that order: 500 nM, 1040 µL/min/mg, 1.33 min, 274 µL/min/mg and 5.06 min.
On the same counts, the results for `CCC(C)C(=O)Nc1cc(-c2c(-c3ccc(F)cc3)nn3c2CN(C)CC3)ccn1` (stereo not shown) [Compound I-100, N-(4-(2-(4-fluorophenyl)-5-methyl-4,5,6,7-tetrahydropyrazolo[1,5-a]pyrazin-3-yl)pyridin-2-yl)-2-methylbutanamide] are 600 nM, 465 µL/min/mg, 2.98 min, 68.2 µL/min/mg and 20.3 min.
Consider `Cc1cc(-c2c(-c3ccc(F)cc3)nn3c2CN(CCO)CC3)ccn1` [Compound I-11, 2-(2-(4-fluorophenyl)-3-(2-methylpyridin-4-yl)-6,7-dihydropyrazolo[1,5-a]pyrazin-5. (4H)-yl)ethan-1-ol], for which, in data set [1], the microsomal CLint at 2 μM came to 16.3 µL/min/mg and the half-life at 2 μM amounted to 84.9 min. In data set [2], the microsomal CLint at 2 μM was determined as 8.74 µL/min/mg and the half-life at 2 μM was determined as 159 min.
The molecule `CC(=O)N1CCn2nc(-c3ccc(F)cc3)c(-c3ccnc(NC(=O)C(C)c4ccc(F)cc4)c3)c2C1` (stereo not shown) [Compound I-82, N-(4-(5-acetyl-2-(4-fluorophenyl)-4,5,6,7-tetrahydropyrazolo[1,5-a]pyrazin-3-yl)pyridin-2-yl)-2-(4-fluorophenyl)propanamide] showed an EC50 at CK1δ of 100 nM. Besides, in data set [1], the microsomal CLint at 2 μM was 453 µL/min/mg and the half-life at 2 μM is 3.06 min. Further, in data set [2], the microsomal CLint at 2 μM came out at 16.5 µL/min/mg and the half-life at 2 μM came out at 84.1 min.
As for `CC(=O)N1CCn2nc(-c3ccc(F)cc3)c(-c3ccnc(NCC(F)(F)F)c3)c2C1` [Compound I-96, 1-(2-(4-fluorophenyl)-3-(2-((2,2,2-trifluoroethyl)amino)pyridin-4-yl)-6,7-dihydropyrazolo [1,5-a]pyrazin-5(4H)-yl)ethan-1-one], the EC50 on CK1δ amounted to 4500 nM. Besides, in data set [1], the microsomal CLint at 2 μM was 10 µL/min/mg and the half-life at 2 μM is 138 min. Also, in data set [2], the microsomal CLint at 2 μM turned out to be 3.74 µL/min/mg and the half-life at 2 μM stood at 370 min.
For `CC(=O)Nc1cc(-c2c(-c3ccc(F)cc3)nn3c2CN(CCF)CC3)ccn1` [Compound I-42, N-(4-(5-(2-fluoroethyl)-2-(4-fluorophenyl)-4,5,6,7-tetrahydropyrazolo[1,5-a]pyrazin-3-yl)pyridin-2-yl)acetamide], in that order: 400 nM, 975 µL/min/mg, 1.42 min, 47.4 µL/min/mg and 29.2 min.
For `CN1CCn2nc(-c3ccc(F)cc3)c(-c3ccnc(NC(=O)Cc4ccc(F)cc4)c3)c2C1` [Compound I-80, 2-(4-fluorophenyl)-N-(4-(2-(4-fluorophenyl)-5-methyl-4,5,6,7-tetrahydropyrazolo [1,5-a]pyrazin-3-yl)pyridin-2-yl)acetamide], in that order: 100 nM, 552 µL/min/mg, 2.51 min, 112 µL/min/mg and 12.3 min.
Turning to `CCC(=O)Nc1cc(-c2c(-c3ccc(F)cc3)nn3c2CN(C)CC3)ccn1` [Compound I-103, N-(4-(2-(4-fluorophenyl)-5-methyl-4,5,6,7-tetrahydropyrazolo[1,5-a]pyrazin-3-yl)pyridin-2-yl)propionamide], at CK1δ, the EC50 worked out at 500 nM. In data set [1], the microsomal CLint at 2 μM worked out at 679 µL/min/mg and the half-life at 2 μM was determined as 2.04 min. In data set [2], the microsomal CLint at 2 μM came to 49.8 µL/min/mg and the half-life at 2 μM worked out at 27.8 min.
